Square brackets hold non-standard residues; d marks the D form. Ends that are not written are not given here. Peptide text beside a SMILES is read from it. hSer = N[C@@H](CCO)C(=O)O
Assays:
B. subtilis = assay: halo (inhibition zone) agar assay of bactericidal activity; type: cell-based; conditions: Bacillus subtilus; per nanomole of polypeptide applied to well
Experimental: (§1) The assay for antimicrobial activity was performed by pouring 10 ml of agar in TYE media containing about 10^7 viable cells of the test organisms. Wells, 2 mm in diameter, were punched in the agar plates. Aliquots of the modified cecropin-like polypeptides (2-12 ul) were then added to each well. The diameter of the inhibition zones, or haloes, around the wells, were measured after overnight incubation at 25° C.
(§2) The activities of various cecropin-like polypeptides were tested against both Gram-negative and Gram-positive organisms. Anti-microbial activity against the Gram-negative organisms remained unaltered for most of the Gram-negative bacteria (except, i.e., Serratia marcescens) as shown in Table 1. […] To determine a standard of halo formation, the various modified cecropin-like polypeptides were also applied to E. coli D21. Activity shown in Tables 1 and 2 is expressed as the ratio of the radius of the cleared halo for each organism versus that for E. coli D21.
(§3) The cecropin-like polypeptide modified at the carboxy terminus with ehtylenediamine and naturally occurring cecropin A were tested against a variety of organisms. The relative activities of the antimicrobial agents were expressed per nanomole of polypeptide applied to each well (Table 3).

M. luteus = assay: as above; type: cell-based; conditions: Micrococcus luteus; per nanomole of polypeptide applied to well
Experimental: as §1, §2, §3

B. megaterium = assay: as above; type: cell-based, Bacillus megaterium; conditions: for Relative activity: ratio of the radius of the cleared halo versus that for E. coli D21: B. megaterium, overnight incubation at 25° C.
Experimental: as §1, §2, §3

S. faecalis = assay: as above; type: cell-based, Streptococcus faecalis
Experimental: as §1, §2, §3

Escherichia coli = assay: halo assay, activity per nanomole; type: cell-based; conditions: per nanomole of polypeptide applied to well
Experimental: as §1, §3

Bacillus megaterium = conditions: from the literature; cited from earlier work

Compound	Relative activity: ratio of the radius of the cleared halo versus that for E. coli D21 (B. megaterium)	Sensitivity of Bacillus megaterium to cecropin (Bacillus megaterium)	also measured
KWKLFKKIEKVGQNIRDGIIKAGPAVAVVGQATQIAK-NH2 [CA--NH2, cecropin A]	0.7 ± 0.05	highly sensitive	Activity per Nanomole (radius of the inhibitory ring) (B. subtilis): < 0.5 millimeters; Activity per Nanomole (radius of the inhibitory ring) (M. luteus): 6.1 millimeters; Activity per Nanomole (radius of the inhibitory ring) (B. megaterium; Bacillus megaterium, per nanomole of polypeptide applied to well): 5.1 millimeters; Activity per Nanomole (radius of the inhibitory ring) (S. faecalis; Streptococcus faecalis, per nanomole of polypeptide applied to well): < 0.5 millimeters; Activity per Nanomole (radius of the inhibitory ring) (Escherichia coli): 6.1 millimeters
CC[C@H](C)[C@H](NC(=O)CNC(=O)[C@H](CC(=O)O)NC(=O)[C@H](CCCNC(=N)N)NC(=O)[C@@H](NC(=O)[C@H](CC(N)=O)NC(=O)[C@H](CCC(N)=O)NC(=O)CNC(=O)[C@@H](NC(=O)[C@H](CCCCN)NC(=O)[C@H](CCC(=O)O)NC(=O)[C@@H](NC(=O)[C@H](CCCCN)NC(=O)[C@H](CCCCN)NC(=O)[C@H](Cc1ccccc1)NC(=O)[C@H](CC(C)C)NC(=O)[C@H](CCCCN)NC(=O)[C@H](Cc1c[nH]c2ccccc12)NC(=O)[C@@H](N)CCCCN)[C@@H](C)CC)C(C)C)[C@@H](C)CC)C(=O)N[C@H](C(=O)N[C@@H](CCCCN)C(=O)N[C@@H](C)C(=O)NCC(=O)N1CCC[C@H]1C(=O)N[C@@H](C)C(=O)N[C@H](C(=O)N[C@@H](C)C(=O)N[C@H](C(=O)N[C@H](C(=O)NCC(=O)N[C@@H](CCC(N)=O)C(=O)N[C@@H](C)C(=O)N[C@H](C(=O)N[C@@H](CCC(N)=O)C(=O)N[C@H](C(=O)N[C@@H](C)C(=O)N[C@@H](CCCCN)C(=O)N[C@@H](CCO)C(=O)O)[C@@H](C)CC)[C@@H](C)O)C(C)C)C(C)C)C(C)C)[C@@H](C)CC [CA--HS--COOH] (H-KWKLFKKIEKVGQNIRDGIIKAGPAVAVVGQATQIAK[hSer]-OH)	0.5 ± 0.1	–	–
cecropin B (KWKVFKKIEKMGRNIRNGIVKAGPAIAVLGEAKAL; ends and bridges not checked; UniProt P01508 27-61, looked up) [natural antibacterial peptide purified from immune hemolymph]	–	highly sensitive	–
CC[C@H](C)[C@H](NC(=O)CNC(=O)[C@H](CC(=O)O)NC(=O)[C@H](CCCNC(=N)N)NC(=O)[C@@H](NC(=O)[C@H](CC(N)=O)NC(=O)[C@H](CCC(N)=O)NC(=O)CNC(=O)[C@@H](NC(=O)[C@H](CCCCN)NC(=O)[C@H](CCC(=O)O)NC(=O)[C@@H](NC(=O)[C@H](CCCCN)NC(=O)[C@H](CCCCN)NC(=O)[C@H](Cc1ccccc1)NC(=O)[C@H](CC(C)C)NC(=O)[C@H](CCCCN)NC(=O)[C@H](Cc1c[nH]c2ccccc12)NC(=O)[C@@H](N)CCCCN)[C@@H](C)CC)C(C)C)[C@@H](C)CC)C(=O)N[C@H](C(=O)N[C@@H](CCCCN)C(=O)N[C@@H](C)C(=O)NCC(=O)N1CCC[C@H]1C(=O)N[C@@H](C)C(=O)N[C@H](C(=O)N[C@@H](C)C(=O)N[C@H](C(=O)N[C@H](C(=O)NCC(=O)N[C@@H](CCC(N)=O)C(=O)N[C@@H](C)C(=O)N[C@H](C(=O)N[C@@H](CCC(N)=O)C(=O)N[C@H](C(=O)N[C@@H](C)C(=O)N[C@@H](CCCCN)C(=O)N[C@@H](CCO)C(N)=O)[C@@H](C)CC)[C@@H](C)O)C(C)C)C(C)C)C(C)C)[C@@H](C)CC [CA--HS--NH2] (H-KWKLFKKIEKVGQNIRDGIIKAGPAVAVVGQATQIAK[hSer]-NH2)	0.4 ± 0.2	–	Relative activity: ratio of the radius of the cleared halo versus that for E. coli D21 (S. faecalis; S. faecalis, overnight incubation at 25° C.): 0
KWKLFKKIEKVGQNIRDGIIKAGPAVAVVGQATQIAK [CA--COOH]	0.2 ± 0.08	–	–
cecropin D	–	relatively resistant	–

— patent publication US5344765A, “DNA encoding polypeptides with activity against gram-positive and gram-negative bacteria” (priority 1993, dated 1994)
